Test [1] has as its system N2 WT C. elegans. Put plainly: IsoK-lysyl-lactam protein adduct quantification by LC/MS/MS. To be noted: increasing concentrations of SA until day 15, versus vehicle control; p<0.01. The class given is in vivo. The text has this:
The mechanism by which IsoKs inactivate protein targets involves covalent adduction of the epsilon amine group on the side chains of lysine residues within target proteins (FIG. 2A). The initial product of this covalent adduction is a lactam ring structure composed of the lysyl side chain and the isoketal. SA's amine group is much more reactive toward IsoKs and preserves protein function by more rapidly forming an adduct with the IsoK, preventing the adduction of lysyl side chains. If this mechanism is operative in vivo when C. elegans are treated with SA, a dose-dependent reduction in IsoK-lysyl-lactam adducts should be observed. To test this directly, WT N2 worms were treated with vehicle or increasing concentrations of SA until day 15, then collected for IsoK-lysyl-lactam adduct quantification by liquid chromatography tandem mass spectrometry (LC/MS/MS) using a heavy isotope-labeled internal standard for quantification.
Worms grown on FUDR containing SA-OP50-seeded NGM plates were collected at Day 15 adult stage by washing in M9 medium, followed by an ice-cold 60% w/v sucrose gradient to segregate clean bacteria-free adult worms from bacterial debris. Clean worms were transferred to Eppendorf tubes and flash-frozen in liquid nitrogen and thawed at 37° C. 3×. […] Levels of IsoK-lysyl-lactam adduct was measured as previously described. […]

Test [2] concerns VC199 [sir-2.1(ok434)]. The test is described as follows: Longevity assay, non-functional SIR-2.1 mutant. The class given is in vivo, C. elegans. To be noted: 0 μM SA 16 days, p=0.70. The protocol: A nematode strain carrying a non-functional SIR-2.1 mutation, VC199 [sir-2.1(ok434)] was treated with the same concentrations of SA as were used in lifespan experiments with WT nematodes. Starting at day 1 of adulthood, SIR-2.1 mutants were grown on SA-coated OP50-seeded NGM plates. SIR-2.1 mutant worms were transferred to freshly made SA-OP50-NGM agar plates every 2 days and survival was assessed using a platinum wire until all worms died; survival was scored as movement upon slight touch with the platinum wire (FIG. 3B). When SA was administered to the VC199 strain, the effect of extending median lifespan that had been observed in the N2 strain was entirely abolished (FIG. 3C; VC199 median lifespan: 16 days, 0 μM SA; 15 days, 50 μM SA; 15 days, 100 μM SA; 15 days, 500 μM SA; p=0.70).
C. elegans strains were cultured at 20° C. on standard nematode growth media (NGM) agar plates seeded with Escherichia coli strain NA22. The following strains were used in this work: wild-type C. elegans Bristol strain (N2), sir-2.1(ok434) IV, F19F10.5(ok888) V, and daf-16(mu86). Strains were obtained from the Caenorhabditis Genetics Center (University of Minnesota, St. Paul, Minn.). For generating cultures of 15-day-old (Day 15) adult worms, synchronized late-stage L4s/early young adult worms were transferred to peptone enriched 15 cm plates containing UV-irradiated OP50 E. coli and 0.12 mM 5-fluoro-2′-deoxyuridine (FUDR) to inhibit progeny production[88] with or without drug until harvest.
Nematodes grown on NGM-agar plates containing 0.5% peptone, were harvested, and eggs were isolated by alkaline hypochlorite with 0.5 N NaOH, 1% hypochlorite; 8 min at 23° C. […]
Survival cultures were grown on 60-mm agar plates; after the late-stage L4/young adult molt, approximately 100 adults were transferred onto SA-OP50-seeded NGM plates. […] Worms were maintained at 20° C. and live worms were counted during transfer to freshly made SA-OP50-NGM agar plates every 2-3 days. Survival was scored as movement upon slight touch with the platinum wire. […]

The source of these data is patent US11633370B2, “Use of scavengers of reactive gamma-ketoaldehydes to extend cell lifespan and healthspan” (Vanderbilt University, priority 2016, dated 2023).

For the compound `NCc1ccccc1O` [SA, salicylamine], the IsoK-lysyl-lactam adduct levels result in test [1] is on record as “significant, dose-dependent reduction”. Also, the median lifespan in test [2] (50 μM SA), in test [2] (100 μM SA) and in test [2] (500 μM SA) was 15 days throughout.
